The test concerns CEM cells HIV-1 protection, formazan growth assay. Nature of the test: NCI AIDS Antiviral Assay. Conditions: for IC50: measured here: growth of uninfected CEM cells. The procedure, abridged:
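Five concentrations of each compound were applied to infected and uninfected human CEM cells. Protection from HIV-1 was judged from growth measured with a soluble formazan assay.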

For orientation: EC50 means the concentration that produces a half-maximal response. The term IC50 denotes the concentration needed to halve the response being measured. Lower therefore signals greater potency in that assay.

Molecules are shown by their SMILES. Active and inactive are the calls of the source.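 Rule for the calls: active = compounds giving half or more protection of infected cells from virus-caused growth loss, again on retest; inactive = the rest.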 Where a SMILES comes first, the peptide text is derived from it.

As to `N#Cc1c(N)c(C(=O)O)nn(-c2cccc(C(F)(F)F)c2)c1=O`, the result was inactive.

As to `COc1cc2c3c(c1OC)-c1c(ccc4c1OCO4)CC3(C#N)N(C(=O)c1ccccc1)CC2` (configuration not stated), the result was inactive.

As for `CCN(CC)CCNc1ccc(CO)c2oc3ccccc3c(=O)c12`, the EC50 was greater than 363 µM and the IC50 was 2.4 µM.

On to `N#Cc1ccc(Oc2nc3ccccc3nc2-c2ccccc2)cc1`, for which the EC50 was greater than 200 µM and the IC50 was greater than 200 µM.

As for `O=C(Nc1ccc(C2=NCCN2)cc1)Nc1cc(NC(=O)Nc2ccc(C3=NCCN3)cc2)cc(C(=O)O)c1`, the EC50 is 38.9 µM and the IC50 was greater than 200 µM.

As to `O=c1ccn(C/C=N/OCCP(=O)(O)O)c(=O)[nH]1`, the EC50 was greater than 200 µM and the IC50 is greater than 200 µM.

Regarding `COc1nc2cc3c(cc2n2cccc12)oc1ccccc13`, the EC50 was 155 µM and the IC50 was greater than 200 µM.

Take `OCC1OC(n2cnc3c(Cl)nc(Nc4ccccc4)nc32)CC1O` (configuration not stated): the EC50 was greater than 200 µM and the IC50 was determined as 28.2 µM.

Consider `O=C1CN(Cc2ccccc2)CC(=O)N2C(c3ccccc3)CCCN12` (configuration not stated), for which the result was inactive.

In the case of `O=[N+]([O-])c1ccc(-c2ccc(/C=N/n3c(-c4ccc(Cl)cc4)n[nH]c3=S)o2)cc1`, the EC50 was greater than 1.23 µM and the IC50 was greater than 1.23 µM.

In the case of `CCOC(=O)Cn1c(=O)[nH]c(=O)c2c1ncn2Cc1ccccc1`, the EC50 was greater than 550 µM and the IC50 was found to be 513 µM.

Turning to `CCOC(=O)c1cncc(C#N)c1`, the EC50 was greater than 200 µM and the IC50 came to 105 µM.

For `CC1(c2ccccc2)CC(c2ccccc2)=NO1` (configuration not stated), the EC50 is greater than 57.5 µM and the IC50 is greater than 57.5 µM.

For the compound `O=C(/C=C/c1ccccc1)NC1C=Nc2ccccc2NC1=O` (configuration not stated), the EC50 was 148 µM and the IC50 is greater than 200 µM.

For `Clc1nc2cc3nc(Cl)c(Cl)nc3cc2nc1Cl`, the EC50 is greater than 50.1 µM and the IC50 was determined as 33.1 µM.

Consider `COc1ccc(-n2c(-c3ccccc3)cc(-c3cccs3)c2-c2cccs2)cc1`, for which the EC50 is greater than 200 µM and the IC50 is greater than 200 µM.

In the case of `c1ccc2nc3c(nc2c1)sc1nc2ccccc2n13`, the EC50 was greater than 200 µM and the IC50 is greater than 200 µM.

`CCOP(=O)(OCC)/C(C#N)=C/c1cccc(Br)c1`: the result was inactive.

Turning to `NC(=O)C(=O)n1ncc(Cl)c(Cl)c1=O`, the EC50 is greater than 30.9 µM and the IC50 is greater than 30.9 µM.

Regarding `Cc1ccc(CN2CC(=O)N3Cc4ccccc4CN3C(=O)C2)cc1`, the outcome was inactive.

For the compound `O=C1CN(CCCN2CCOCC2)CC(=O)N2Cc3ccccc3CN12`, the EC50 is greater than 200 µM and the IC50 was greater than 200 µM.

For the compound `CN(C)c1ccc(/C=C(\C#N)c2c(Br)cccc2Br)cc1`, the EC50 was greater than 200 µM and the half-maximal inhibitory concentration (IC50) was found to be 4.17 µM.

Turning to `O=C(c1cccs1)N1CCc2ccccc2C1`, the EC50 was greater than 162 µM and the IC50 came out at 107 µM.

For `NS(=O)(=O)c1nnc(NC(=O)/C=C/C(=O)O)s1`, the EC50 is greater than 200 µM and the IC50 is greater than 200 µM.

As to `Cc1ccc(Nc2nc3ccccc3nc2NS(=O)(=O)c2ccc(N)cc2)cc1`, the EC50 is greater than 200 µM and the IC50 is 43.7 µM.

`COc1ccc(C(=O)O)c(Cc2ccc3ccccc3c2)c1`: the result was inactive.

Regarding `C[C@@H](NC(=O)CNC(=O)OC(C)(C)C)C(=O)N[C@@H](Cc1ccccc1)C(=O)OCc1ccccc1` (HELM PEPTIDE1{[CC(C)(C)OC(=O)[*:2]].G.[dA].F.[c1ccc(CO[*:1])cc1]}$$$$V2.0), the EC50 is greater than 200 µM and the IC50 was determined as 97.7 µM.

As to `N#CCCN(c1ccc(/C=N/c2nc(-c3ccccc3)cs2)cc1)S(=O)(=O)c1ccccc1`, the EC50 was greater than 55 µM and the IC50 was greater than 55 µM.

With `O=C1c2ccccc2NC(=O)C2C1C(c1ccccc1)CC2(O)c1ccccc1` (configuration not stated), the EC50 was greater than 200 µM and the 50% inhibitory concentration (IC50) worked out at 33.1 µM.

Source of the values: PubChem BioAssay AID179 (DTP/NCI, 2004).
